# Tests used:
# [1] = molecular target: T1, Multidrug resistance protein HmrM (Haemophilus influenzae) (UniProt P45272); assay: Inhibition of Haemophilus influenza HmrM transporter expressed in Escherichia coli KAM32 assessed as inhibition of bacterial resistance to norfloxacin by measuring norfloxacin MIC at 100 uM incubated for 18 hrs by microbroth dilution method
# T1 sequence (whole entry): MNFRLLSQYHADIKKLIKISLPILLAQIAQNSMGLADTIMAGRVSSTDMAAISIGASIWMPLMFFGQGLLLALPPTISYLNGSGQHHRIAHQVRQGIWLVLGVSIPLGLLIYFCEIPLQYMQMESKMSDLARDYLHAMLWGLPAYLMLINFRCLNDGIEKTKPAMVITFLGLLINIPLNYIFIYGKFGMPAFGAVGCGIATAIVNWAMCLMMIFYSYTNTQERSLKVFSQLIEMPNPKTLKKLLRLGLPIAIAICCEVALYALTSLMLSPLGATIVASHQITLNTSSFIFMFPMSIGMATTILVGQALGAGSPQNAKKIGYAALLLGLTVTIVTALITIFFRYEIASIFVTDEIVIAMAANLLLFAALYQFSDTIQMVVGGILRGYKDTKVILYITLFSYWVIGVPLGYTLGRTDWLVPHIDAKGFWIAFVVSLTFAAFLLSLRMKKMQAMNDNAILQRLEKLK
# [2] = molecular target: T1, Multidrug resistance protein HmrM (Haemophilus influenzae); assay: Inhibition of Haemophilus influenza HmrM transporter expressed in Escherichia coli KAM32 assessed as inhibition of bacterial resistance to norfloxacin by measuring reduction in bacterial growth at 100 uM incubated for 18 hrs by microbroth dilution method
# [3] = molecular target: T2, Multidrug and toxin extrusion protein 1 (Homo sapiens, UniProt Q96FL8); assay: Inhibition of human MATE1; format: toxicity
# T2 sequence (Q96FL8 whole entry): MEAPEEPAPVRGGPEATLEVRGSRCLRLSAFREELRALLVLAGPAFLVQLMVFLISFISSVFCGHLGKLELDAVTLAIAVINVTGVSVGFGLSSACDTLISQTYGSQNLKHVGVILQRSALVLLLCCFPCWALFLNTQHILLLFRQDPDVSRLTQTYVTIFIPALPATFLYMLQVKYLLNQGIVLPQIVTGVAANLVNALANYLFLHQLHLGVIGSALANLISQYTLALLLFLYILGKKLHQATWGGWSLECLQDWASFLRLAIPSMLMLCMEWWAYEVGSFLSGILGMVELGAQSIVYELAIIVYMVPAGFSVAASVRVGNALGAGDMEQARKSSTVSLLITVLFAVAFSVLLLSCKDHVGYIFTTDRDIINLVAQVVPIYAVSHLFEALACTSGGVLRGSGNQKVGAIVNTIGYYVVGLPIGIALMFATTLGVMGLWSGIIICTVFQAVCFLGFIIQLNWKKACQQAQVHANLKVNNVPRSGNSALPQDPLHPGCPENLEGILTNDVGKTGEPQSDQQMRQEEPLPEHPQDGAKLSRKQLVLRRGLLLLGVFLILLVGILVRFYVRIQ
# [4] = molecular target: T3, Multidrug resistance protein MdtK (Escherichia coli (strain K12)) (UniProt P37340); assay: Inhibition of Escherichia coli MdtK expressed in Escherichia coli KAM32 assessed as inhibition of bacterial growth incubated for 18 hrs by microbroth dilution method
# T3 sequence (whole entry): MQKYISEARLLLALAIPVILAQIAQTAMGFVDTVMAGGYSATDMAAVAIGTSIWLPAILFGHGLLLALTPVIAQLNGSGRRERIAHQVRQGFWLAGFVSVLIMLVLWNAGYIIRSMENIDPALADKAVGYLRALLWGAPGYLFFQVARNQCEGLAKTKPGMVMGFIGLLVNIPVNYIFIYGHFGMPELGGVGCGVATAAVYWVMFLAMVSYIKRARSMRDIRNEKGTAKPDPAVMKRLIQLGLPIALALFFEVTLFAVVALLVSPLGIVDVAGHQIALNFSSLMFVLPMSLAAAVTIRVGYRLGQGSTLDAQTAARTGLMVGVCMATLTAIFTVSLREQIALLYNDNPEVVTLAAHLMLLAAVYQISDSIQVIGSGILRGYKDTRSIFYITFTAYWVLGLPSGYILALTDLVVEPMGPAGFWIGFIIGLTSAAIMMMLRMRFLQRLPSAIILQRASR
# [5] = system: Bacteroides thetaiotaomicron; assay: Inhibition of Bacteroides thetaiotaomicron BexA expressed in Escherichia coli KAM32 assessed as inhibition of bacterial growth incubated for 18 hrs by microbroth dilution method
# HEK293 = assay: Cytotoxicity against human HEK293 cells assessed as reduction in cell viability upto 300 uM incubated for 24 hrs by MTT assay; format: toxicity, cell-based; conditions: hek293, 24 h
Structure (SMILES),MIC [1],Efficacy [2],IC50 [3],Efficacy [4],Efficacy [5],Activity (HEK293)
CN/C(=N\C#N)NCCSCc1ccccc1F,0.04 µg/mL,50%,,,,
CN/C(=N\C#N)NCCOCc1cccc(F)c1,0.056 µg/mL,17%,,,,
CN/C(=N\C#N)NCCSCc1cccc([N+](=O)[O-])c1,0.032 µg/mL,67%,,,,
CN/C(=N\C#N)NCCSCc1ccc(F)cc1,0.048 µg/mL,33%,,,,
CN/C(=N\CCSCc1nc[nH]c1C)NC#N,0.056 µg/mL,17%,,,,
CN/C(=N\C#N)NCCCc1cccc(F)c1,0.04 µg/mL,50%,,,,
CN/C(=N\C#N)NCCSCc1cccc(C(F)(F)F)c1,0.048 µg/mL,33%,,,,
Cc1[nH]cnc1CSCCNc1ncccn1,,,2 µM,,,
NCCSCc1cccc(F)c1,0.04 µg/mL,50%,,,,
N=C(N)NCCSCc1cccc(F)c1,0.048 µg/mL,33%,,,,
CN/C(=N\C#N)NCCc1cccc(F)c1,0.056 µg/mL,17%,,,,
CN/C(=N\C#N)NCCSCc1ccc(F)c(F)c1,0.048 µg/mL,33%,,,,
CS/C(=N\C#N)NCCSCc1cccc(F)c1,0.032 µg/mL,67%,,,,
CN/C(=N\C#N)NCCSCc1ccccc1,0.056 µg/mL,17%,> 100 µM,,,
CN/C(=N\C#N)NCCCCCc1cccc(F)c1,0.02 µg/mL,92%,> 100 µM,86%,0%,Non-Toxic
CN/C(=N\C#N)NCCSCCc1cccc(F)c1,0.028 µg/mL,75%,,57%,0%,
CN/C(=N\C#N)NCCSCc1cc(F)cc(F)c1,0.04 µg/mL,50%,,,,
CN/C(=N\C#N)NCCCCc1cccc(F)c1,0.024 µg/mL,83%,,57%,0%,
CN/C(=N\C#N)NCCSCc1cccc(OC)c1,0.04 µg/mL,50%,,,,
Fc1cccc(CSCCNc2ncccn2)c1,0.056 µg/mL,17%,,,,
CN/C(=N\C#N)NCCSCc1cccc(F)c1,0.032 µg/mL,67%,> 100 µM,,,

# Reference: ChEMBL document CHEMBL5096211, “Fluorophenylalkyl-substituted cyanoguanidine derivatives as bacteria-selective MATE transporter inhibitors for the treatment of antibiotic-resistant infections” (Bioorg Med Chem, 2022)
